Experimental data from patent publication US12577273B2, “Small molecule modulators of gut bacterial bile acid metabolism” (priority 2019, dated 2026).
“Also recorded” adds a separate entry of the source. Read-outs that look alike come from different tables or passages of the source.

What was measured:
conventional mice = assay: Food intake of conventional mice dosed with 3S-LCA-FMK; type: in vivo, mouse; details: compared to mice dosed with vehicle
C57BL/6 mice [1] = details: for detection in circulating plasma: in vivo
NCI-H716 cells = assay: Off-target profiling in mammalian cells using 7-N3; type: cell-based, human
Description: Off-Target profiling in Mammalian Cells using 7-N3. The human epithelial cell line NCI-H716 was used to study interactions with mammalian proteins. 10 μM 7-N3 (10 mM stock in DMSO) or 1 uL DMSO (for control) were added to ˜8×10^6 cells in 1 ml DPBS (HiMedia) and incubated for 1 h. Cells were collected in 15 ml Falcon tubes and washed 2 times in 15 ml DBPS by centrifugation at 500 g for 5 mins. A 3rd wash by centrifugation was performed in 1 mM solution of cOmplete™ Protease Inhibitor Cocktail (Roche, Switzerland) in DPBS. Cells were resuspended in 250 ul of DPBS with 1 mM cOmplete™ Protease Inhibitor Cocktail and sonicated at 50% amplitude for 2 secs followed by 30 secs on ice for 3 cycles. The lysate was centrifuged at 15,000 g for 15 mins at 4° C. The supernatant was removed and protein concentration was measured by Bradford assay. The lysates were then subjected to click reaction as per “Click Chemistry for In-gel Fluorescence Imaging” for in-gel fluorescence and “Click Chemistry for MS/MS on Mammalian Lysate” for mass spectrophotometer-based quantification and identification.
Click Chemistry for In-gel Fluorescence Imaging. Click reactions were performed on 25 μL scale. […]
Proteomic Analysis of Click-Tagged Proteins. […] Indicated bands were excised, subjected to in-gel digestion, and extracted peptides analyzed by nanoflow LC-MS/MS as described.^53

[2] = system: BSH activity in conventional mouse feces; assay: Screen of inhibitors in conventional mouse feces; type: biochemical
Description: Screen of Inhibitors in Conventional Mouse Feces. […] The tubes were then frozen in dry ice for 5 mins and upon thawing were diluted with an equal volume of methanol. […] The supernatant was removed into a clean eppendorf tube and centrifuged again. […] The concentration of product detected from these assays was reported directly.

B. adolescentis BSH = assay: Target validation and off-target profiling in B. adolescentis using 7-N3; type: cell-based, Bifidobacterium adolescentis L2-32
Description: Target Validation and Off-target Profiling in B. adolescentis using 7-N3. Pilot studies with 7-N3 were performed using B. adolescentis (Gram positive) and B. theta (Gram negative). We chose to use B. adolescentis due to the stronger total fluorescent signal detected by-in gel fluorescence. […] Cultures were allowed to grow anaerobically at 37° C. for 21 h. 10 μM 7-N3 (10 mM stock in DMSO) or […] DMSO (to control tubes) was then added to the cultures and incubated anaerobically at 37° C. for 1 h. The cultures were centrifuged at 2,500 g at 4° C. for 15 mins. The media was decanted and cells were resuspended in PBS containing 1 mM TCEP and 1 mM PMSF and centrifuged 4,200 rpm at 4° C. for 15 mins. The buffer was decanted and the cells were suspended in 300 μL of fresh buffer and transferred to homogenizing tubes (Precellys lysing kit tough micro-organism lysing VK05 tubes) with ceramic beads. The suspension was then homogenized (5000 speed for 90 s*2, 6500 speed for 60 s) and spun down for 20 min at 15,000 g at 4° C. The supernatant was removed and the concentration of proteins in the lysate was quantified by Bradford assay. The lysates were then subjected to click reaction as per “Click Chemistry for In-gel Fluorescence Imaging” for fluorescence imaging and “Click Chemistry for MS/MS on Bacterial Lysate” for mass spectrophotometer-based quantification and identification.
Cultures were allowed to grow anaerobically at 37° C. for 21 h. Decreasing concentrations of 7 were added to different tubes and the cultures were incubated anaerobically at 37° C. for 1 h. 10 μM 7-N3 was then added to the cultures and incubated anaerobically at 37° C. for an additional hour. The cultures were further processed as per the reported method in “Target Validation and Off-target Profiling in B. adolescentis using 7-N3” and “Click Chemistry for In-gel Fluorescence Imaging”.
Click Chemistry for In-gel Fluorescence Imaging. Click reactions were performed on 25 μL scale. Lysates (normalized to 1.5 mg/mL for both bacterial and mammalian cells) pretreated with 10 μM Compound 7-N3 were incubated with 100 μM fluor 488-alkyne (10 mM stock in DMSO), 100 μM CuBr (5 mM stock in DMSO), and 100 μM Tris[(1-benzyl-1H-1,2,3-triazol-4-yl)methyl]amine (5 mM stock in 4:1 t-BuOH:DMSO) for 1 h at 37° C. in the dark. 10 μL of 2×Laemmli buffer (containing 5% β-mercaptoethanol) was added to the reactions and the tubes were heated at 95° C. for 10 mins. 15 μL of the protein samples were then resolved by 10% SDS-PAGE. The ladder was diluted 100-fold and 10 μL was loaded. Gels were destained for 30 mins using 40% methanol, 50% acetic acid, 10% water and visualized using Bio-Rad ChemiDoc MP Imaging System. Gels were stained for 20 mins in Coomassie blue and destained for 2 h prior to imaging.
Click Chemistry for MS/MS on Bacterial Lysate. Click reactions were performed on 100 μL scale. Lysates (normalized to 1.3 mg/mL) pretreated with 10 μM 7-N3 were incubated with 100 μM desthiobiotin-PEG4-alkyne (10 mM stock in DMSO), 1 mM CuBr (50 mM stock in DMSO), and 1 mM Tris[(1-benzyl-1H-1,2,3-triazol-4-yl)methyl]amine (50 mM stock in 4:1 t-BuOH:DMSO) for 1 h at 37° C. The samples were then processed for further analysis as per “Proteomic Analysis of Click-Tagged Proteins”.
Proteomic Analysis of Click-Tagged Proteins.

C57BL/6 mice [3] = details: mouse, in vivo
Description: Animal Studies. C57BL/6 mice obtained from Jackson laboratories were maintained under a strict 12 h/12 h light/dark cycle and a constant temperature (21±1° C.) and humidity (55-65%). All experiments were conducted on 8-9 week old male mice.
Mice were fed powdered standard chow diet (LabDiet, catalog no. 5053) for the duration of the experiment. Mice were split into two groups of ten mice each and were maintained on powdered chow (control group) or fed powdered chow containing 0.09% (w/w) GR-7 (experimental group). Feces from these mice were collected as described above at 8 h. Mice were euthanized after 30 hours of access to the powdered chow with or without GR-7 using carbon dioxide. Blood samples were collected by cardiac puncture and placed in EDTA-coated tubes on ice. The liver and cecal contents were then collected from each mouse, snap frozen in liquid nitrogen, and stored at −80° C. until further analysis. […]
BSH Activity in Feces. BSH activity in fecal pellets were quantified using a modified version of a published method.^45 Fecal pellets (approximately 10-20 mg) were suspended in buffer (10% PBS, 90% sodium acetate at pH 5.2) containing 100 μM (GCDCA-d4) to obtain a concentration of 20 mg/mL. […] The concentration of product detected from these assays were reported directly.
Quantification of Bile Acids in Tissues and Plasma. […]
Quantification of bacterial 16S rDNA copy number. […]

[4] = system: differentiated Caco-2 cells; assay: Epithelial permeability assay (4 kDa FITC-dextran)

Structure (SMILES): C[C@H](CCC(=O)CF)[C@H]1CC[C@H]2[C@@H]3CC[C@@H]4C[C@H](OS(=O)(=O)O)CC[C@]4(C)[C@H]3CC[C@]12C [Compound 3S-LCA-FMK, 3-sulfated-lithocholic acid-fluoromethyl ketone]
- food intake (conventional mice): significant decrease in food consumption; also recorded: reduces food intake
- BSH activity in feces (C57BL/6 mice [1]; 0.03% weight/weight in chow ad libitum for 7 days): significantly reduced
- detection in circulating plasma (C57BL/6 mice [1]; male, C57Bl/6, mouse): No 3S-LCA-FMK was detectable
- detection in circulating plasma (C57BL/6 mice [1]; mouse): not detectable

Structure (SMILES): C[C@H](CCC(=O)CF)[C@H]1CC[C@H]2[C@@H]3[C@H](O)C[C@@H]4C[C@H](N=[N+]=[N-])CC[C@]4(C)[C@H]3CC[C@]12C [Compound 7-N3]
- in-gel fluorescence labeling in NCI-H716 cells (NCI-H716 cells; 10 μM, 1 h, click with Fluor 488-alkyne): no significant labeling of proteins; also recorded: no enrichment of any band
- enrichment of proteins in probe-treated NCI-H716 lysates (NCI-H716 cells; label-free LC-MS/MS): ≤ 2 fold
- BSH inhibition in conventional mouse feces (in words) ([2]; 7-N3, concentration not given): significant BSH inhibition; also recorded: potently inhibited BSH activity in mouse feces
- in-gel fluorescence labeling in B. adolescentis L2-32 (B. adolescentis BSH; 10 μM, 1 hour, click with Fluor 488-alkyne): labeling of only one protein; also recorded: Only one fluorescent band was visible
- enrichment of BSH in gel bands, probe- versus vehicle-treated cultures (B. adolescentis BSH; desthiobiotin-alkyne, streptavidin pulldown, in-gel digestion, LC-MS/MS, semi-quantitative): 4.5 fold
- enrichment of other bacterial proteins (B. adolescentis BSH; label-free LC-MS/MS, biological triplicate): ≤ 2 fold
- enrichment of BSH in probe-treated cultures (B. adolescentis BSH; on-bead digestion, label-free LC-MS/MS): 3.6 fold

Structure (SMILES): C[C@H](CCC(=O)CF)[C@H]1CC[C@H]2[C@@H]3[C@H](O)C[C@@H]4C[C@H](OS(=O)(=O)[O-])CC[C@]4(C)[C@H]3CC[C@]12C.[Na+] [GR-7]
- BSH inhibition in mouse fecal slurry (in words) ([2]; 20 μM or 60 μM of GR-7, 30 mins, GCDCA-d4 100 μM, 18 hours): remains a potent pan-BSH inhibitor; also recorded: inhibited BSH activity in a fecal slurry
- detection in feces (C57BL/6 mice [3]): detected
- microbial biomass (16S rDNA copies/g in cecal contents) (C57BL/6 mice [3]): did not affect microbial biomass
- epithelial barrier integrity of Caco-2 cells ([4]; 60 μM): did not affect epithelial barrier integrity
- epithelial monolayer integrity (passive diffusion of 4 kDa FITC-dextran) ([4]; differentiated Caco-2, apical chamber, 6 or 12 h): did not compromise epithelial monolayer integrity
